Experimental findings from patent US20130136722A1, “Methods of Ex Vivo Expansion of Blood Progenitor Cells, and Generation of Composite Grafts” (The Board of Trustees of The University of Illinois, priority 2011, published 2013) are described below.

“And” between values parts separate entries of the source, which are not always exact repeats. Identical values can stand only once.

In test [1] the test system is NOD/SCID mice. The test can be described thus: Serial (secondary) transplantation of expanded CB cells. It counts as in vivo, mouse.
Test [2] relates to NOD/SCID mice. The test can be described thus: SCID repopulating cell (SRC) frequency by limiting dilution analyses. It is filed as in vivo, mouse. As to conditions: for (# of NOD/SCID mice engrafted)/(# of mice transplanted): Day 9. As to the method:
Immunodeficient nonobese diabetic/ltsz-scid/scid (NOD/SCID) mice were purchased from Jackson Laboratories (Bar Harbor, Me.) and transplantation assays were performed as described (Araki et al., 2009, Id.; Araki et al., 2007, Id.; Taswell, 1981, Id.). Equal number of primary CD34^+ cells or the progeny of an equal initial number of CD34^+ cells following culture were injected per mouse intravenously. Mice were sacrificed 8 weeks after transplantation, and bone marrow (BM) cells from each mouse were analyzed by flow cytometry to detect multilineage human cell engraftment.
The frequency of SCID-repopulating cells (SRCs) present in VPA-expanded, CD34^+CD90^+ cord blood-derived stem cells was quantitated in comparison to unmanipulated primary cord blood cells by in vivo xeno-transplant studies using limiting dilution analyses as described previously (Conneally et al., 1997, Proc. Natl. Acad. Sci. 94: 9836-41; Bhatia et al., 1997, J Exp Med. 186: 619-24; Wang et al., 1997, Blood 89: 3919-24; Chute et al., 2005, Blood 105: 576-83). The frequency of SRC was 1 in 22,000 (95% Confidence Interval: 1/11,722-1/41,293) in primary CD34^+CD90^+ cells, and 1 in 21,720 (95% Confidence Interval: 1/11,160-1/42,269) in the VPA expanded cultures (Table 5 and FIG. 2E).

The test system of test [3] is cord blood-derived CD34+CD90+ cells. The test can be described thus: Ex vivo expansion culture of cord blood CD34+ cells with chromatin modifying agents, flow cytometry for CD34/CD90. It counts as cell-based, human. The text has this: Freshly collected human CB was obtained from the New York Blood Center (New York, N.Y.) according to Institutional Review Board guidelines. Low density CB cells (<1.077 g/ml) were obtained by density centrifugation on Ficoll-Paque PLUS (GE Healthcare Bio-Sciences AB, Uppsala, Sweden), from which CD34^+ cells were immunomagnetically isolated by the MACS CD34 progenitor isolation kit (Miltenyi Biotech, Inc., Auburn, Calif.) as described in Araki et al., 2009, Exp Hematol. 37: 1084-1095). The purity of isolated CD34^+ cells routinely ranged from 90-99%.
CD34^+ cell expansion culture with or without CMA was carried out as described (Araki et al., 2009, Id.; Araki et al. 2006, Exp Hematol. 34: 140-149; Araki et al, 2007, Blood 109: 3570-3578.). All other HDAC inhibitors including 1 mM VPA (Sigma), TSA (5 ng/mL), NA (5 mM) or 5 μM of Suberoylanilide hydroxamic acid (SAHA; BioVision, Inc. Mountain View, Calif.) was added twice at 0 hr and after changing media at 48 hrs of culture. HDAC inhibitors were added only once (48 hr) when used in combination with a DNMT inhibitor as described (Araki et al., 2009, Id.; Araki et al., 2006, Id.; Himburg et al., 2010, Nat. Med. 16: 475-482).
Flow cytometric analysis was carried out as described (Araki et al., 2009, Id.; Araki et al. 2006, Id.; Araki et al, 2007, Id.). All antibodies were purchased from BD Bioscience (San Jose, Calif.). All analyses were paired with the corresponding matched isotype control and at least 10,000 live cells were acquired for each analysis (CellQuest software, Becton Dickinson).
In order to compare the effects of various chromatin modifying agents (CMAs) on the degree of expansion of cord blood-derived, primitive subpopulation of CD34^+ cells, valproic acid (VPA), trichostatin A (TSA), nicotinic acid (NA), suberoylanilide hydroxamic acid (SAHA) or 5-aza-2′-deoxycytidine (5azaD) as single agents or in combination was tested in vitro. The results of fluorescence-activated cell sorting experiments performed on cord blood-derived CD34^+/CD90^+ cells treated with CMA agents is shown in FIG. 1A.
In general terms: A flow cytometer gives signals particle by particle.

In test [4] the test system is genes implicated in HSC self-renewal, differentiation, expansion and maintenance. In words: Real time quantitative PCR of gene transcripts in re-isolated expanded CD34+ cells. It is filed as cell-based, human. As to the method: RNA preparation and real time quantative PCR assays were performed using SYBR green dye (Life Technologies; Carlsbad, Calif.) and an ABI 7500 Fast Real-Time PCR system (Life Technologies) were used to quantitate gene expression in reverse-transcribed mRNA as described (Araki et al., 2007, Id.). Gene expression was calculated by relative quantitation, and all results were normalized to expression of GAPDH.
To investigate whether treating cells with CMA altered gene expression, transcript levels of several genes associated with hematopoietic stem cell (HSC) self-renewal and differentiation were compared in unmanipulated primary CD34^+ cells (day 0) and CD34^+ cells expanded in the presence or absence of CMA (5azaD/TSA) during ex vivo culture. […] In the absence of 5azaD/TSA treatment, transcript levels of these genes were reduced over the course of 9 days of culture, correlating well with poor in vivo hematopoietic reconstitution capacity of untreated cells compared to unmanipulated primary or 5azaD/TSA expanded CD34^+ cells. […] In addition, transcript levels of CDK inhibitor P21, which regulates the G1/S transition of the cell cycle, was reduced in CD34^+ cells expanded in the absence of CMAs, but was not reduced in 5azaD/TSA expanded cells (p=0.06). Reduced P21 levels are generally associated with shorter G1/S transition and faster rate of cell divisions. […] This was also consistent with previous results showing membrane tracking dye as well as bromodeoxyuridine (BrdU) pulse chase assays of CD34^+CD90^+ cells during expansion culture (Araki et al., 2007, Blood 109: 3570-78).

The test system of another test is LTB4. In words: LTB4 in conditioned media by AChE competitive ELISA. It counts as cell-based, human. The following applies: day 9 of expansion culture; FIG. 4E. As to the method: The concentration of LTB4 in conditioned media was measured by an acetylcholine esterase competitive enzyme immunoassay following the manufacturer's instructions (Cayman Chemical Co. Ann Arbor, Mich.). Absorbance at 405 nm was read using ELx 800, instrument (Bio Tek Instruments Inc.). Results were calculated using mean values of triplicate wells with standard errors (SE).
(In an ELISA, binding on a coated surface is turned into a signal by an enzyme label.)

For the compound `CCCC(CCC)C(=O)O` [VPA, valproic acid], the “Secondary mouse BM chimerism (% human)” value in the test with NOD/SCID mice [1] (10-30 × 10^6 unseparated BM cells from primary mouse, sacrificed 7 weeks later, individual mice) is reported as “Not Detectable”. The “Primary mouse BM chimerism (% human)” value in the test on NOD/SCID mice [1] (progeny of 1 × 10^4 primary CB cells treated ex vivo for 9 days, individual mice) was 0.60 % human and 1.0 % human (2×) and 0.30 % human and 5.6 % human. The secondary hosts engrafted result with NOD/SCID mice [1] (serial transplantation from primary recipients) was “none of the 5”. Further, the “(# of NOD/SCID mice engrafted)/(# of mice transplanted)” value in the test with NOD/SCID mice [2] (2,000 CD34+CD90+ cells used to initiate ex vivo culture) is 0/7; in the test with NOD/SCID mice [2] (5,000 CD34+CD90+ cells used to initiate ex vivo culture), 2/5; with NOD/SCID mice [2] (10,000 CD34+CD90+ cells used to initiate ex vivo culture) it was 2/7; with NOD/SCID mice [2] (20,000 CD34+CD90+ cells used to initiate ex vivo culture), 5/8. Also, the “SRC numbers during ex-vivo culture (in words)” value in the test on NOD/SCID mice [2] (mouse, in vivo) was “maintained SRC numbers”. Also, in test [3] (9 days of culture, cytokines (SCF, Flt3-ligand, TPO, IL-3) plus CMA, FIG. 1A), the “cells co-expressing CD34+ and CD90+” value came to 42.2%. Also, in test [3] (9 days of culture, cytokines plus CMA, FIG. 1B), the “fold expansion of CD34+CD90+ cells” value is 64.6±3.7 fold and 65 fold. Besides, in test [3] (mean ± SEM of three independent experiments), the “CD34+CD90+ (%)” value worked out at 42.17 ± 13.45 %. The “transcript levels of Alox5 in contrast to CD34+ cells expanded in 5azaD/TSA” value in test [4] was “significantly higher”. Besides, the “transcript levels of S100A8 and Alox5 in contrast to controls” value in test [4] (FIGS. 5A, 5B) is “increased”. For the same compound, the “transcript levels of GATA1 compared with control cultures” value in test [4] (day 3, FIG. 3B) was “significantly increased”. The “level of leukotriene B4 (LTB4) in conditioned medium” value with LTB4 was “increased compared to control”.
